pIC50: −log10 of the molar value.
Test system: HL-60 cells
Assay: Vitamin D3 antagonist action: inhibition of HL-60 cell differentiation induced by 1α,25-dihydroxyvitamine D3 (NBT reducing activity)
Format: cell-based
Details: Homo sapiens, HL-60, 96 h, inhibition of NBT reducing activity induced by 1×10^-8 M 1α,25-dihydroxyvitamine D3, 4 days
Text: The Vitamin D3 Antagonist Action Determined by Using the Induction of HL-60 Cell Differentiation by 1α,25-dihydroxyvitamine D3 as an Indicator
(1) HL-60 cells that were purchased from a cell bank (Japanese Cancer Research Resources Bank, Cell No. JCRB0085) were used. The cells were maintained as a frozen preservation stock to prevent changes in cellular characteristics by subculture. The stock was thawed before starting the experiment, and the cells which subsequently initiated subculture were used. The cells with subcultivation approximately over one month to a half year were used for the experiment. The subcultivation was performed by first centrifuging and collecting cells in suspension culture, and then diluting the collected cells by approximately a factor of 100 to a concentration of 1×10^4 to 2×10^4 cells/ml in a fresh culture medium. An RPMI-1640 medium with 10% fetal bovine serum was used as the culture medium. […]
(3) The induction of nitroblue tetrazolium (hereinafter referred to as NBT) reducing activity was used as an indicator of the induction of HL-60 cell differentiation. The NBT reducing activity was measured according to the procedures described below. […]

pIC50: > 8.00
Structure (SMILES): C=C1C(=O)OC(C[C@@H](C)[C@H]2CC[C@H]3/C(=C/C=C4/C[C@@H](O)C[C@H](O)C4=C)CCC[C@]23C)C1CCO (stereo partly drawn) [Compound No. 114a, 20(R)-(tetrahydro-3-methylene-2-furanone-4-(2-hydroxyethyl)-5-yl)methyl-9,10-secopregna-5(Z),7(E),10(19)-triene-1α,3β-diol]

From patent publication US9073885B2, “Vitamin D3 lactone derivatives” (Teijin Pharma Limited, priority 2003, dated 2015)
